Laboratory results taken from PubChem BioAssay AID463204 (Broad Institute, 2010).
Active and inactive are the calls of the source.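 The calls were made as follows: active = AC50 no more than ten times the top concentration tested, that is within one log above it; inconclusive = flat curve fit with activity between 30% and 70%, or invalid poor fit; inactive = AC50 beyond ten times the top tested dose.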

Test system: S. cerevisiae Mot1-301 ts growth rescue, BacTiter-Glo ATP luminescence
Assay: growth rescue of Mot1-301 ts yeast, confirmation, SUMOylation pathway inhibitor project, whole organism, S. cerevisiae, Mot1-301 ts mutant, luminescence, dose retest (AID 463204);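 also: growth at restrictive 38.5 degrees C of Mot1-301 OY566 strain; actives raise luminescence by restoring growth of the ts mutant at high temperature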

| SMILES | AC50 |
| --- | --- |
| Cc1ccccc1Nc1c([N+](=O)[O-])ccc2c1=NC1(CCCCC1)N=2 | > 42 µM (inactive) |
| Cc1sc(-n2c(C)cc(C=C3C(=O)NC(=O)NC3=O)c2C)c(C#N)c1C | > 42 µM (inactive) |
| CCOC(=O)c1cnc2ccc(Cl)cc2c1N1CCN(C)CC1 | > 42 µM (inactive) |
| COc1ccc(C(=O)O)cc1S(=O)(=O)NCCN(C)C | > 42 µM (inactive) |
| CNS(=O)(=O)c1cccc(C(=O)OCC(=O)Nc2ccc(OC)cc2[N+](=O)[O-])c1 | > 42 µM (inactive) |
| COc1cccc(CNC(=O)CCCn2nc(C)c3c(C)n(-c4ccccc4)nc3c2=O)c1 | > 42 µM (inactive) |
| CC(C)CCNC(=O)Cn1c(=O)oc2cc(S(=O)(=O)N3CC(C)CC(C)C3)ccc21 (stereo unspecified) | > 42 µM (inactive) |
| COc1ccc(C(=O)N/C(=C\c2cc(OC)c(OC)cc2[N+](=O)[O-])C(=O)NCCO)cc1 | > 42 µM (inactive) |
| CCOC(=O)NNC(=O)CCn1c2c(c3ccccc31)CCCC2 | > 42 µM (inactive) |
| Cn1nc(C(C)(C)C)c([N+](=O)[O-])c1C(=O)Nc1ccccc1 | > 42 µM (inactive) |
| Cc1cc(C)cc(NC(=O)CS(=O)(=O)c2ccccc2)c1 | > 42 µM (inactive) |
| CC(=O)Nc1ccc(-c2csc(NC(=O)C3CC(=O)N(c4ccc5c(c4)OCCO5)C3)n2)cc1 (stereo unspecified) | > 42 µM (inactive) |
| O=c1nc(-c2ccccc2)cn[nH]1 | > 42 µM (inactive) |
| C=CSc1sc(Cl)c(N(C)C)c1[N+](=O)[O-] | > 42 µM (inactive) |
| CCOC(=O)c1sc2ncnc(N3CCN(c4ccc(OC)cc4)CC3)c2c1C | > 42 µM (inactive) |
| O=C1Nc2ccccc2/C1=C/c1ccc([N+](=O)[O-])cc1 | > 42 µM (inactive) |
| COc1ccc(NC(=O)CSc2nnc(-c3ccccn3)n2-c2ccccc2)cc1OC | > 42 µM (inactive) |
| COc1ccc(CN2C(=O)c3c(c(C)n(C)c3C)C2C(=O)NC2CCC(C)CC2)cc1 (stereo unspecified) | > 21 µM (inactive) |
| Cc1ccc(Cn2c(NCCc3ccccc3)nc3c2c(=O)n(C)c(=O)n3C)cc1 | > 42 µM (inactive) |
| COc1ccc(NC(=O)c2ccc(-n3cncn3)c([N+](=O)[O-])c2)cc1 | > 21 µM (inactive) |
| Cc1cc(C)c(S(=O)(=O)NCC(c2cccnc2)N2CCN(Cc3ccccc3)CC2)c(C)c1 (stereo unspecified) | > 42 µM (inactive) |
| CCN(CC)CCCn1c(=S)[nH]c2ccc(Cl)cc2c1=O | > 42 µM (inactive) |
| Cc1cc([N+](=O)[O-])ccc1NC(=O)CSc1nccc(=O)[nH]1 | > 42 µM (inactive) |
| CCOC(=O)N1CCN(c2nnnn2-c2ccccc2)CC1 | > 42 µM (inactive) |
| Cc1ccccc1C(=O)NNC(=O)/C=C\C(=O)O | > 42 µM (inactive) |
| CCCOc1ccc(C(=O)NCc2ccco2)cc1 | > 42 µM (inactive) |

| SMILES | AC50 |
| --- | --- |
| CC(C)(C)CC(=O)Nc1cc(S(=O)(=O)N2CCOCC2)ccc1N1CCCC1 | > 42 µM (inactive) |
| O=C(CC(c1ccccc1)c1ccccc1O)NCCN1CCOCC1 (stereo unspecified) | > 42 µM (inactive) |
| CCOc1ccc(-c2nc3n(c(=O)c2C#N)CCS3)cc1 | > 42 µM (inactive) |
| CC1=C(C(=O)Nc2ccccc2)C(c2ccccc2[N+](=O)[O-])NC(=O)N1 (stereo unspecified) | > 42 µM (inactive) |
| O=C(c1cc(-c2ccc(Cl)cc2)n(-c2ccc(Cl)cc2)n1)N1CCOCC1 | > 42 µM (inactive) |
| Cc1ccc(C(=O)NCCCNC(=O)c2ccc(C)nc2)cc1 | > 42 µM (inactive) |
| CC(C)(C)NC(=S)NCc1cccnc1 | > 42 µM (inactive) |
| CCCCN(C)C(=O)c1cc2c(Cl)nc3ccccc3c2s1 | > 42 µM (inactive) |
| O=C(COc1ccccc1)Nc1ccc(OC(F)(F)C(F)F)c(NC(=O)COc2ccccc2)c1 | > 42 µM (inactive) |
| CCCc1ccc(S(=O)(=O)NCCc2ccncc2)cc1 | > 42 µM (inactive) |
| N#CC1=C(N)OC2=C(C(=O)CCC2)C1C1CC=CCC1 (stereo unspecified) | > 42 µM (inactive) |
| Oc1ccccc1-c1cc(C(F)(F)C(F)F)[nH]n1 | > 42 µM (inactive) |
| c1ccc(-c2cc3cc4c(cc3cn2)OCO4)cc1 | 11.7 µM |
| Cc1ccc(S(=O)(=O)NNC(=O)c2cc3cc4ccccc4nc3s2)cc1 | > 42 µM (inactive) |
| Cc1ccc(C(=O)Nc2ccc3c(c2)OCCO3)c(Cl)c1 | > 42 µM (inactive) |
| CN(CP(=O)(O)C(O)c1ccccc1)S(C)(=O)=O (stereo unspecified) | > 42 µM (inactive) |
| CCc1nn(C)c(N)c1C | > 42 µM (inactive) |
| CCOc1ccc(NC(=O)CN(C)C(=O)c2ccc(OCc3ccccc3)c(OC)c2)cc1OCC | > 42 µM (inactive) |
| Cc1cc(F)ccc1S(=O)(=O)Nc1ccccc1C(=O)Nc1ccc2[nH]c(=O)[nH]c2c1 | > 42 µM (inactive) |
| CO/N=C/c1ccc(Oc2ccc(C)cc2)nc1 | > 42 µM (inactive) |
| CCC(C)[C@H](N)c1nnc(SCC(=O)Nc2cccc(Cl)c2)o1 (stereo partly specified) | > 42 µM (inactive) |
| c1ccc(-c2nc(N3CCOCC3)c3ccccc3n2)nc1 | > 42 µM (inactive) |
| Cc1cnc(=O)[nH]c1SCC(=O)c1ccc(F)cc1 | > 42 µM (inactive) |
| CCOc1ncccc1-c1nc(-c2cccs2)no1 | > 42 µM (inactive) |
| CCOC(=O)C1=C(N)c2ccccc2CC1C1CCCC1 (stereo unspecified) | > 42 µM (inactive) |
| O=C(/C=C/c1cccc([N+](=O)[O-])c1)NCCSCc1ccc(Cl)cc1Cl | > 42 µM (inactive) |

| SMILES | AC50 |
| --- | --- |
| CCOC(=O)C1=C(C)Nc2ncnn2C1/C=C/c1ccccc1 (stereo unspecified) | > 42 µM (inactive) |
| O=C(COC(=O)c1ccccc1SCC(=O)N1CCCC1)NC1CCCCC1 | > 42 µM (inactive) |
| COc1ccccc1N1CCN(C(=O)c2sc3ncnc(N4CCN(c5ccccn5)CC4)c3c2C)CC1 | > 42 µM (inactive) |
| COCCn1c(=O)[nH]c(=O)c2cc(C(=O)c3cc(Cl)ccc3O)cnc21 | > 42 µM (inactive) |
| CN(C(=S)NC1=CCS(=O)(=O)C1)C1CCCCC1 | > 42 µM (inactive) |
| COc1ccc(Cn2nnnc2CN2CCN(c3ccc(OC)cc3)CC2)cc1 | > 42 µM (inactive) |
| CC(=O)N1CC(=O)Nc2ccc(Cl)cc2C1c1ccccc1 (stereo unspecified) | > 42 µM (inactive) |
| CCc1noc(C)c1C(=O)Nc1nc(-c2ccc(F)cc2)c(C)s1 | > 42 µM (inactive) |
| CC(=O)N1CCC2(CC1)CC(=O)c1cc(OCC(=O)N3CCCC3)ccc1O2 | > 42 µM (inactive) |
| COc1ccccc1CC(=O)N1CCN(S(=O)(=O)c2ccccc2)CC1 | > 42 µM (inactive) |
| CCOC(=O)CSc1cc(C)nc2ccc(OC)cc12 | > 42 µM (inactive) |
| COC(=O)c1ccccc1NC(=O)CSc1nnnn1CC(=O)O | > 42 µM (inactive) |
| CC(=O)CSc1ncnc2sc3c(c12)CCCC3 | > 42 µM (inactive) |
| Clc1ccccc1C(c1ccccc1)(c1ccccc1)n1ccnc1 | 3.47 µM |
| COc1ccc(-c2nc3c(c(SCC(=O)N4CCOCC4)n2)Cc2c(CO)cnc(C)c2O3)cc1 | > 42 µM (inactive) |
| CCN(CC1COc2ccccc2O1)C(=S)NCCCN(C)C (stereo unspecified) | > 42 µM (inactive) |
| CC(=O)/C=C/n1c(=S)oc2ccccc21 | 11.3 µM |
| CCOC(=O)N1CCN(S(=O)(=O)c2ccc(C)c(C)c2)CC1 | > 42 µM (inactive) |
| CCN(CC(=O)N1CCCCCC1)S(=O)(=O)c1ccc(Cl)cc1 | > 42 µM (inactive) |
| CCOc1ccc2nc(CN3CCN(Cc4ccccc4OCC)C(CCO)C3)ccc2c1 (stereo unspecified) | > 42 µM (inactive) |
| Oc1c(Cl)cc(Cl)cc1/C=N/c1nc(-c2ccc(Cl)cc2)cs1 | 34.1 µM |
| CCCCSCCCNC(=O)Nc1cccc(OC)c1 | > 42 µM (inactive) |
| CCOc1ccccc1NC(=O)CSc1nc(N)c(C#N)cc1C#N | > 42 µM (inactive) |
| CCCc1nc2c(nnn2Cc2ccccc2F)c(=O)[nH]1 | > 42 µM (inactive) |
| CC(=O)c1cccc(CN2CCCC(N3CCN(c4ccccc4F)CC3)C2)c1 (stereo unspecified) | > 42 µM (inactive) |
| CCCCCCCCCCOC(=O)Cn1c(COc2ccc(OC)cc2)[n+](C)c2ccccc21 | 6.72 µM |

| SMILES | AC50 |
| --- | --- |
| CCC1CCCCN1CCCNC(=O)C1CCC(CNS(=O)(=O)c2c(C)cc(C)cc2C)CC1 (stereo unspecified) | > 42 µM (inactive) |
| CSc1nnc2c3cc(C)ccc3n(Cc3ccccc3)c2n1 | > 42 µM (inactive) |
| Cc1nc(N/N=C\c2ccc3c(c2)OCO3)sc1C | 33.5 µM |
| CCNCCNC(=O)c1c(O)c2c([nH]c1=O)CCCC2 | > 42 µM (inactive) |
| COc1ccc(-c2cc(C#N)nc(N3CCN(c4ccccc4)CC3)n2)cc1 | > 42 µM (inactive) |
| CC(C)CC(c1nnnn1C1CCCCC1)N1CCN(C(=O)c2ccco2)CC1 (stereo unspecified) | > 42 µM (inactive) |
| O=C(NNC(=O)c1csc(N2CCOCC2)n1)c1ccc(Cl)nc1 | > 42 µM (inactive) |
| O=C(O)COc1ccc(Br)cc1/C=N\Nc1ccccn1 | > 42 µM (inactive) |
| CS(=O)(=O)C1=NSC2=NC(=O)/C(=C\c3ccc(OS(=O)(=O)c4ccccc4)cc3)C(=N)N21 | > 42 µM (inactive) |
| CCCCOc1ccc(CSC(=N)N)cc1Cl | > 42 µM (inactive) |
| CCN(CC)S(=O)(=O)c1cc(NC(=O)COC(=O)CCc2nc3ccccc3s2)ccc1C | > 42 µM (inactive) |
| Cc1cccc(N2CCN(CCCNC(=O)c3ccc(NC(=O)C4=CSCCO4)cc3)CC2C)c1 (stereo unspecified) | > 42 µM (inactive) |
| Cc1ccc(-c2nc(-c3cccnc3)sc2CC(=O)O)cc1 | > 42 µM (inactive) |
| Cc1ccccc1NC(=O)c1ccccc1NC(=O)c1ccco1 | > 42 µM (inactive) |
| c1ccc(-c2csc(NC3CCCCC3)n2)cc1 | > 42 µM (inactive) |
| COc1ccc(CN2CCNC(=O)C2CC(=O)NCc2cn3ccc(C)cc3n2)c(OC)c1 (stereo unspecified) | > 42 µM (inactive) |
| Fc1ccccc1-n1cc(-c2ccccc2)[nH]c1=S | > 42 µM (inactive) |
| Cc1cccc(NC(=S)NC(=O)/C=C/c2ccco2)c1 | > 42 µM (inactive) |
| Cc1nn(C)c(C)c1-c1c(C#N)c(N)nc2c1CCCCCC2 | 16.9 µM |
| COC(=O)c1ccc(CSc2nnnn2-c2ccccc2)o1 | > 42 µM (inactive) |
| COc1cccc(N=Nc2c(=O)[nH]n3c(=O)cc(C)[nH]c23)c1 | > 42 µM (inactive) |
| O=C(CCCNC(=O)/C(=C/c1ccccc1F)NC(=O)c1ccccc1)OCc1ccccc1 | > 42 µM (inactive) |
| CN1CCN(C(=O)CCN2C(=O)/C(=C/c3ccccc3Cl)SC2=S)CC1 | > 42 µM (inactive) |
